Biological target: T1, GATOR2/Sestrin2 complexes (Homo sapiens, UniProt P58004)
T1 construct: The Flag-WDR24/endogenous-Sestrin2 complex was isolated as follows; expressed in transfected cells; host or cells: HEK293T cells stably expressing FLAG-WDR24 (lentiviral vector pLJM60); Sestrin2 and the remaining GATOR2 subunits are endogenous
T1 sequence (P58004 1-480): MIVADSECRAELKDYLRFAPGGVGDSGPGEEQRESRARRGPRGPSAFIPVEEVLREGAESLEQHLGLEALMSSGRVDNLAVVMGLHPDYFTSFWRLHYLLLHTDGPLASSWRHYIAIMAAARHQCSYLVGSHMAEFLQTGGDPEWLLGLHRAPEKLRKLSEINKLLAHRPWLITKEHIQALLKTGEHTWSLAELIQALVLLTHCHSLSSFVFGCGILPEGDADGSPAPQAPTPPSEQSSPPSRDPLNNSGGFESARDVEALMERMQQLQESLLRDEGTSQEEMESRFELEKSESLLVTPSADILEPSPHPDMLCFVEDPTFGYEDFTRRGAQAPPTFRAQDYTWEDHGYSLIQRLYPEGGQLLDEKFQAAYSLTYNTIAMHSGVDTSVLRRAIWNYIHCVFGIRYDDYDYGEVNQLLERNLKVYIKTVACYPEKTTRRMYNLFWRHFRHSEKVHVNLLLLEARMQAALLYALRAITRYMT
Assay: In vitro PPI assay (Method 1): Sestrin2 bound to GATOR2, western blot, % activity relative to leucine
Type: binding
Conditions: compound at 25 μM; leucine 25 μM = 100% activity; duplicate
From the text: This screening assay measured test compound activity in vitro on GATOR2/Sestrin2 complexes purified via immunoprecipitation of stably expressed FLAG-WDR24 from HEK293T cells. HEK293T cells (293 Ts) were engineered to stably express N-terminally tagged FLAG-WDR24 via transduction by lentivirus. Lentiviruses were produced by co-transfection of the lentiviral transfer vector pLJM60 with the […] into HEK-293T cells using the XTremeGene 9 transfection reagent (Roche Diagnostics). The media was changed 24 hours post-transfection to Dulbecco's Modified Eagle's media (DMEM) supplemented with 30% Inactivated Fetal Serum. The virus-containing supernatants were collected 48 and 72 hours after transfection and passed through a 0.45 μm filter to eliminate cells. Target cells in 6-well tissue culture plates were infected in media containing 8 μg/mL polybrene and spin infections were performed by centrifugation at 2,200 rpm for 1 hour. Twenty-four hours after infection, the virus was removed and the cells selected with the appropriate antibiotic. Cells were then grown in DMEM supplemented with 10% fetal bovine serum and antibiotics.
Seventy-two hours later, cells were placed in standard RPMI media formulated with no amino acids and supplemented with 5 mM Glucose (−AA RPMI, US Biological Life Sciences) for 1 hour then subsequently lysed in lysis buffer (40 mM HEPES, 1% Triton, 10 mM sodium β-glycerophosphate, 10 mM sodium pyrophosphate, 2.5 mM MgCl2 and protease inhibitors). […]
The resulting western blots were scanned and band intensities corresponding to Sestrin2 and FLAG-WDR24 were quantified using the LI-COR® imaging platform. […]
This screening assay measured compound activity in vitro on GATOR2/Sestrin2 complexes purified via immunoprecipitation of stably expressed Flag-WDR24 from HEK293T cells. […]

| Activity of Leucine: % Activity | Compound |
| --- | --- |
| A to C | CC(C)C[C@H](N)C(=O)NC(C)(C)C [Example I-165] |
| B to C | CC(C)C[C@H](N)S(=O)(=O)O [Example I-157] |

| Compound | Activity of Leucine: % Activity |
| --- | --- |
| CC(C)CCC(N)C(=O)O (stereo not drawn) [Example I-41] | A (% activity relative to leucine of ≥40%) |

System: mTORC1
Assay: Cell-based mTORC1 activation (Method 2), western blot of phosphorylated S6 Kinase and 4EBP1 in HEK293T cells
Conditions: 100 μM; shift relative to DMSO control; HEK293T cells after leucine starvation
Method: Briefly, 800,000 HEK293T cells were plated in each well of a 6-well plate in DMEM supplemented with 10% fetal bovine serum and antibiotics. […] Cells were then lysed, processed for SDS-PAGE and western blotting was performed with antibodies directed against the mTORC1 substrates phosphorylated S6 Kinase (Thr389) and phosphorylated 4EBP1 (Thr37/46) (Cell Signaling Technology) and loading controls (beta-actin, Santa Cruz Biotechnology) as described in Kang, S. A., et al. Science 341(6144): 364-374 (2013). The intensity of the bands corresponding to the phosphorylated substrates were then normalized to the actin band using the LI-COR® imaging platform.

| Compound | Cell-Based mTORC1 Activation |
| --- | --- |
| C[C@H](CC(N)C(=O)O)C(F)(F)F (stereo in doubt) [Example I-167, (2R,4R)-2-amino-5,5,5-trifluoro-4-methylpentanoic acid] | D to F |
| CC(C)C(F)(F)[C@H](N)C(=O)O [Example I-46, (R)-2-amino-3,3-difluoro-4-methylpentanoic acid] | D (a shift relative to DMSO control of 0.5 to 2 fold) |
| CC(C)(C)C[C@H](N)C(=O)O [Example I-43] | D to E |
| N[C@H](CCCC(F)(F)F)C(=O)O [Example I-9, (R)-2-amino-6,6,6-trifluorohexanoic acid] | E (a shift relative to DMSO of 2.1-5 fold) |
| CC(C)C(F)(F)[C@@H](N)C(=O)O [Example I-47, (S)-2-amino-3,3-difluoro-4-methylpentanoic acid] | D (a shift relative to DMSO control of 0.5 to 2 fold) |
| N[C@@H](CC1CCC1)C(=O)O [Example I-37] | E to F |
| NC(CCCC(F)(F)F)C(=O)O (stereo not drawn) [Example I-42] | D to F |
| CC(C)C[C@H](N)C(=O)O [Example I-44] | D (a shift relative to DMSO control of 0.5 to 2 fold) |
| COC(=O)[C@@H](N)CC(C)C [Example I-168] | D to E |
| CC(C)C[C@H](N)C(N)=O.Cl [Example I-23] | D to F |

Same assay, conditions: 30 and 100 μM; shift relative to DMSO control; HEK293T cells after leucine starvation

| Compound | Cell-Based mTORC1 Activation |
| --- | --- |
| CC(C)C[C@@H](N)B1OC(C)(C)C(C)(C)O1 [Example I-10] | D (a shift relative to DMSO control of 0.5 to 2 fold) |

Biological target: T2, Sestrin2 (Homo sapiens, UniProt P58004)
T2 construct: crude lysate generated from a human cell line; endogenous in cells; host or cells: Unnamed human cell line (crude lysate)
T2 sequence (P58004 1-480): T1 sequence (P58004 1-480)
Assay: Indirect ligand binding assay (ILBA, Method 7), immunoprecipitation with CST anti-Sestrin2 antibody
Conditions: crude lysate of amino acid starved human cell line, 1 hour incubation
Method: Conversely, compounds that destabilized Sestrin2 as measured by thermal shift assay increased the affinity of the CST antibody for non-denatured Sestrin2. […] In one version, the assay was performed with crude lysate generated from a human cell line after a 1-hour period of amino acid starvation (cells are lysed in 1% Triton, 10 mM beta-glycerol phosphate, 10 mM sodium pyrophosphate, 40 mM HEPES [pH 7.4], 150 mM NaCl and 2.5 mM MgCl2). […] After compound incubation, samples were subjected to immunoprecipitation with the CST anti-Sestrin2 antibody for 1.5 hours followed by a 30-minute incubation with protein-A sepharose as described in L. Chantranupong, et al., Cell Reports 9:1-8 (2014). The sepharose conjugated antibody-protein complex was precipitated via centrifugation and the flow-through was subjected to a second round of immunoprecipitation with a rabbit polyclonal anti-Sestrin2 antibody (Protein Tech, #10795-1-AP) to determine that total Sestrin2 protein levels between samples were equal. SDS-PAGE was performed with the immunoprecipitation samples followed by western-blot with the mouse monoclonal anti-Sestrin2 antibody from SIGMA (cat #WH0083667M3). […] This version of the assay also measured increased instability of Sestrin2 induced by incubation with compounds.

| decrease in the intensity of the band corresponding to Sestrin2 (CST antibody immunoprecipitation) [%] | Compound |
| --- | --- |
| ≥ 50 | CC(C)C[C@H](N)C(=O)O [leucine] |
